According to ChEMBL document CHEMBL1145783, “Development of an orexin-2 receptor selective agonist, [Ala(11), D-Leu(15)]orexin-B” (Bioorg Med Chem Lett, 2003):
pEC50: −log10 of the molar value.

Legend:
[1] = biological target: T1, Orexin receptor type 2 (Homo sapiens) (UniProt O43614); experiment: (§1) Agonist activity against human orexin 2 receptor; EC50; nM; type: functional
T1 sequence (whole entry): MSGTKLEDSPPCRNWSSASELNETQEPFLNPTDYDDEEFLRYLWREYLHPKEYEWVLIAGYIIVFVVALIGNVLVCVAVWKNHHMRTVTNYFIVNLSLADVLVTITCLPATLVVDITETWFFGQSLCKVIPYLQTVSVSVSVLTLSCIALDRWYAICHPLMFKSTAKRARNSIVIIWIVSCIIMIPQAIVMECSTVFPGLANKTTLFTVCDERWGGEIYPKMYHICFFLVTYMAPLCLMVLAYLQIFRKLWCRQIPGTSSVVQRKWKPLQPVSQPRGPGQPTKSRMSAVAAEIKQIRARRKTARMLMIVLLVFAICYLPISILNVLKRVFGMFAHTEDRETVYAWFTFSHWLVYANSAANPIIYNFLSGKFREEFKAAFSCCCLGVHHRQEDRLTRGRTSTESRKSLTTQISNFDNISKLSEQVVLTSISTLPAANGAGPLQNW

Homo sapiens = species: Homo sapiens; experiment: (§2) Agonist selectivity for orexin receptor 1 versus orexin receptor 2; type: functional
[2] = biological target: T2, Orexin/Hypocretin receptor type 1 (Homo sapiens) (UniProt O43613); experiment: Agonist activity against human orexin 1 receptor; EC50; nM; type: functional
T2 sequence (whole entry): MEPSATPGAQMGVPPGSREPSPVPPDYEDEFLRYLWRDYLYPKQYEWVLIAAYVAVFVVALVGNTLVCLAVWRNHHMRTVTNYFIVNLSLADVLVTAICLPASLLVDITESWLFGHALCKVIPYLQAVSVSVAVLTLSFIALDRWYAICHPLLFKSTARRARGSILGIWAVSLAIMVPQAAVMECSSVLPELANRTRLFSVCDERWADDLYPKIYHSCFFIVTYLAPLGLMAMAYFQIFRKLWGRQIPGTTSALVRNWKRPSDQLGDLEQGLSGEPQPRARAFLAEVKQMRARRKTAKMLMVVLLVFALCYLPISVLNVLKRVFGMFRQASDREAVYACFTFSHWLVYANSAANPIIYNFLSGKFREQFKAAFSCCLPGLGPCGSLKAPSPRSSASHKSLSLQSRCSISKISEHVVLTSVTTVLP

[3] = as §2; type: functional, Homo sapiens
Orexin receptor type 2 = biological target: T3, Orexin receptor type 2 (Homo sapiens, UniProt O43614); experiment: as §1; type: functional
T3 sequence (O43614 whole entry): T1 sequence (whole entry)

Row | SMILES | pEC50 [1] | selectivity (Homo sapiens) | pEC50 [2] | selectivity [3] | pEC50 (Orexin receptor type 2)
1 | CC[C@H](C)[C@H](NC(=O)[C@H](CC(C)C)NC(=O)[C@@H](NC(=O)[C@@H](N)CCSC)[C@@H](C)O)C(=O)NCC(=O)N[C@@H](C)C(=O)N[C@@H](C)C(=O)N[C@@H](Cc1c[nH]cn1)C(=O)N[C@@H](CC(N)=O)C(=O)NCC(=O)N[C@@H](CO)C(=O)N[C@@H](C)C(=O)N[C@@H](CCC(N)=O)C(=O)N[C@H](CC(C)C)C(=O)N[C@@H](CC(C)C)C(=O)N[C@@H](CCCN=C(N)N)C(=O)N[C@@H](CCC(N)=O)C(=O)N[C@@H](C)C(=O)N[C@@H](CCCN=C(N)N)C(=O)NCC(=O)N[C@@H](CCC(N)=O)C(=O)N[C@@H](CC(C)C)C(=O)NCC(=O)N1CCC[C@H]1C(=O)N1CCC[C@H]1C(=O)NCC(=O)N[C@@H](CO)C(=O)N[C@@H](CCCN=C(N)N)C(N)=O | 9.89 | 400 | 7.28 |  | 
2 | CC[C@H](C)[C@H](NC(=O)[C@H](CC(C)C)NC(=O)[C@@H](NC(=O)[C@@H](N)CCSC)[C@@H](C)O)C(=O)NCC(=O)N[C@@H](C)C(=O)N[C@@H](C)C(=O)N[C@@H](Cc1c[nH]cn1)C(=O)N[C@@H](CC(N)=O)C(=O)NCC(=O)N[C@@H](CO)C(=O)N[C@@H](C)C(=O)N[C@@H](CCC(N)=O)C(=O)N[C@@H](CC(C)C)C(=O)N[C@@H](CC(C)C)C(=O)N[C@@H](CCCN=C(N)N)C(=O)N[C@@H](CCC(N)=O)C(=O)N[C@@H](CC(C)C)C(=O)N[C@@H](CCCN=C(N)N)C(=O)NCC(=O)N[C@@H](CCC(N)=O)C(=O)N[C@@H](CC(C)C)C(=O)NCC(=O)N1CCC[C@H]1C(=O)N1CCC[C@H]1C(=O)NCC(=O)N[C@@H](CO)C(=O)N[C@@H](CCCN=C(N)N)C(N)=O [OREXIN B] | 10.09 | 10 | 9.08 | 10 | 
3 | CC[C@H](C)[C@H](NC(=O)[C@H](CC(C)C)NC(=O)[C@@H](NC(=O)[C@@H](N)CCSC)[C@@H](C)O)C(=O)NCC(=O)N[C@@H](C)C(=O)N[C@@H](C)C(=O)N[C@@H](Cc1c[nH]cn1)C(=O)N[C@@H](CC(N)=O)C(=O)NCC(=O)N[C@@H](CO)C(=O)N[C@@H](C)C(=O)N[C@@H](CCC(N)=O)C(=O)N[C@@H](CC(C)C)C(=O)N[C@H](CC(C)C)C(=O)N[C@@H](CCCN=C(N)N)C(=O)N[C@@H](CCC(N)=O)C(=O)N[C@@H](C)C(=O)N[C@@H](CCCN=C(N)N)C(=O)NCC(=O)N[C@@H](CCC(N)=O)C(=O)N[C@@H](CC(C)C)C(=O)NCC(=O)N1CCC[C@H]1C(=O)N1CCC[C@H]1C(=O)NCC(=O)N[C@@H](CO)C(=O)N[C@@H](CCCN=C(N)N)C(N)=O | 8.72 | 140 | 6.57 |  | 
4 | CC[C@H](C)[C@H](NC(=O)[C@H](CC(C)C)NC(=O)[C@@H](NC(=O)[C@@H](N)CCSC)[C@@H](C)O)C(=O)N[C@H](C)C(=O)N[C@@H](C)C(=O)N[C@@H](C)C(=O)N[C@@H](Cc1cnc[nH]1)C(=O)N[C@@H](CC(N)=O)C(=O)NCC(=O)N[C@@H](CO)C(=O)N[C@@H](C)C(=O)N[C@@H](CCC(N)=O)C(=O)N[C@@H](CC(C)C)C(=O)N[C@@H](CC(C)C)C(=O)N[C@@H](CCCN=C(N)N)C(=O)N[C@@H](CCC(N)=O)C(=O)N[C@@H](CC(C)C)C(=O)N[C@@H](CCCN=C(N)N)C(=O)NCC(=O)N[C@@H](CCC(N)=O)C(=O)N[C@@H](CC(C)C)C(=O)NCC(=O)N1CCC[C@H]1C(=O)N1CCC[C@H]1C(=O)NCC(=O)N[C@@H](CO)C(=O)N[C@@H](CCCN=C(N)N)C(N)=O |  |  |  |  | 7.17
5 | CC[C@H](C)[C@H](NC(=O)[C@H](CC(C)C)NC(=O)[C@@H](NC(=O)[C@@H](N)CCSC)[C@@H](C)O)C(=O)NCC(=O)N[C@@H](C)C(=O)N[C@@H](C)C(=O)N[C@@H](Cc1cnc[nH]1)C(=O)N[C@@H](CC(N)=O)C(=O)NCC(=O)N[C@@H](CO)C(=O)N[C@@H](C)C(=O)N[C@@H](CCC(N)=O)C(=O)N[C@@H](CC(C)C)C(=O)N[C@@H](CC(C)C)C(=O)N[C@@H](CCCN=C(N)N)C(=O)N[C@@H](CCC(N)=O)C(=O)N[C@H](CC(C)C)C(=O)N[C@@H](CCCN=C(N)N)C(=O)NCC(=O)N[C@@H](CCC(N)=O)C(=O)N[C@@H](CC(C)C)C(=O)NCC(=O)N1CCC[C@H]1C(=O)N1CCC[C@H]1C(=O)NCC(=O)N[C@@H](CO)C(=O)N[C@@H](CCCN=C(N)N)C(N)=O |  |  |  |  | 9.22
